From US11369565B2, “Amino-pyrimidine skeletal muscle modulators” (Cytokinetics, Inc., priority 2010, dated 2022) come the findings set out here.

In this assay the test system is rabbit skeletal myofibrils (approximately 90% fast fibers). Nature of the assay: Activation of fast skeletal myofibrils (PUMA coupled-enzyme ATPase assay at pCa25). The assay is classed as biochemical. The following applies: concentration at which the compound increased the enzymatic activity by 40%; calcium at pCa25; PM12 buffer pH 6.8. The protocol:
Preparation of fast skeletal myofibrils. Rabbit skeletal myofibrils were prepared based upon the method of Herrmann et al. (Biochem. 32(28):7255-7263(1993). Myofibrils were prepared from rabbit psoas muscle purchased from Pel-Freez Biologicals (Arkansas) within 2 days of ordering, stored on ice. Minced muscle was homogenized in 10 volumes of ice-cold “standard” buffer (50 mM Tris, pH 7.4, 0.1 M potassium acetate, 5 mM KCl, 2 mM DTT, 0.2 mM PMSF, 10 μM leupeptin, 5 μM pepstatin, and 0.5 mM sodium azide) containing 5 mM EDTA and 0.5% Triton X-100 using an Omni-Macro homogenizer. Myofibrils were recovered by low speed centrifugation (3000 rpm for 10 minutes) and washed 2 times in the Triton X-100 containing buffer to ensure removal of cellular membrane. Following the Triton washes, myofibrils were washed 3 times in “standard” buffer containing 2 mM magnesium acetate. A final wash in assay buffer (12 mM PIPES, pH 6.8, 60 mM KCl, 1 mM DTT) was performed and brought to 10% sucrose for flash freezing in liquid nitrogen and storage at −80° C.
Activation of Fast Skeletal Myofibrils. Fast fiber activators were identified by measuring the enzymatic activity of muscle myofibril preparations using the proprietary PUMA™ (see, e.g., U.S. Pat. Nos. 6,410,254, 6,743,599, 7,202,051, and 7,378,254) assay system. Myofibril preparations consisted of rabbit skeletal muscle (approximately 90% fast fibers) that had been mechanically homogenized and washed with a detergent (triton X-100) to remove cellular membranes. This preparation retained all of the sarcomeric components in a native conformation and the enzymatic activity was still regulated by calcium. Compounds were tested using a myofibril suspension and a level of calcium sufficient to increase enzymatic activity of the myofibrils to 25% of their maximal rate (termed pCa25). Enzymatic activity was tracked via a pyruvate kinase and lactate dehydrogenase-coupled enzyme system. This assay regenerates myosin-produced ADP into ATP by oxidizing NADH, producing an absorbance change at 340 nm. The buffering system was 12 mM Pipes, 2 mM MgCl2, 1 mM DTT at pH 6.8 (PM12 buffer).
In the case of `Cc1cnc(N)nc1-c1cnc(NC[C@]2(c3ncccc3F)C[C@H](F)C2)nc1` [[5-(2-amino-5-methylpyrimidin-4-yl)pyrimidin-2-yl]{[3-fluoro-1-(3-fluoro(2-pyridyl))cyclobutyl]methyl}amine], the “Mean AC1.4” value is reported as “D (D=>20 uM)”.

On to `Cn1nccc1NC(=O)c1cnc(NCC2(c3ncccc3F)CCC2)nc1` [[2-({[(3-fluoro(2-pyridyl))cyclobutyl]methyl)amino)pyrimidin-5-yl]-N-(1-methylpyrazol-5-yl)carboxamide], for which the “Mean AC1.4” value was “D (D=>20 uM)”. As for `CC(C)(Nc1ncc(-c2ncc(CNC(=O)c3c[nH]c(O)n3)s2)cn1)c1ncccc1Cl` [N-{[2-(2-{[1-(3-chloro(2-pyridyl))-isopropyl]amino}pyrimidin-5-yl)(1,3-thazol-5-yl)]methyl}(2-hydroxyimidazol-4-yl)carboxamide], the entry is “B (B=1-10 uM)”. Next, `NC(=O)c1cccc(-c2cnc(NC[C@]3(c4ncccc4F)C[C@H](F)C3)nc2O)c1` [3-[2-({[3-fluoro-1-(3-fluoro(2-pyridyl))cyclobutyl]methyl}amino)-4-hydroxypyrimidin-5-yl]benzamide]: “B (B=1-10 uM)”; `COC(=O)c1cc(-c2cnc(NC(C)(C)c3ncccc3Cl)nc2)ncn1` [methyl 6-(2-{[1-(3-chloro(2-pyridyl))-isopropyl]amino}pyrimidin-5-yl)pyrimidine-4-carboxylate]: “D (D=>20 uM)”. As for `Fc1ccc(C2(Nc3ncc4cn[nH]c4n3)CCC2)cc1` [[(4-fluorophenyl)cyclobutyl]pyrazolo[5,4-d]pyrimidin-6-ylamine], the entry is “D (D=>20 uM)”; as for `CC(C)(Nc1ncc(-n2cc(C#N)cn2)cn1)c1ncccc1Cl` [1-(2-{[1-(3-chloro(2-pyridyl))-isopropyl]amino}pyrimidin-5-yl)pyrazole-4-carbonitrile], “D (D=>20 uM)”. Take `O=C1NCc2cccc(-c3cnc(NC[C@]4(c5ncccc5F)C[C@H](F)C4)nc3)c21` [7-[2-({[3-fluoro-1-(3-fluoro(2-pyridyl))cyclobutyl]methyl}amino)pyrimidin-5-yl]isoindolin-1-one]: the “Mean AC1.4” value was “B (B=1-10 uM)”. Next, `CN(C)c1nc(NC[C@]2(c3ncccc3F)C[C@H](F)C2)ncc1-c1ccccc1` [[2-({[3-fluoro-1-(3-fluoro(2-pyridyl))cyclobutyl]methyl}amino-5-phenylpyrimidin-4-yl]dimethylamine]: “D (D=>20 uM)”; `NC(=O)c1cc(-c2cnc(NCC3(c4ncccc4F)CCC3)nc2)ccn1` [4-[2-({[(3-fluoro-2-pyridyl)cyclobutyl]methyl}amino)pyrimidin-5-yl]pyridine-2-carboxamide]: “B (B=1-10 uM)”; `O=C(O)c1cnc(NC2(c3ncccc3F)CCC2)nc1C(F)(F)F` [2-{[(3-fluoro(2-pyridyl))cyclobutyl]amino}-4-(trifluoromethyl)pyrimidine-5-carboxylic acid]: “D (D=>20 uM)”. As for `NC(=O)c1ccc(O)c(-c2cnc(NCC3(c4ncccc4F)CCC3)nc2)c1` [3-[2-({[(3-fluoro(2-pyridyl))cyclobutyl]methyl}amino)pyrimidin-5-yl]-4-hydroxybenzamide], the entry is “A (A=<1 uM)”. Next, `CC(C)(Nc1ncc(-c2cccc(C(N)=O)c2)cn1)c1ncccc1Cl` [3-(2-{[1-(3-chloro(2-pyridyl))-isopropyl]amino}pyrimidin-5-yl)benzamide]: “A (A=<1 uM)”; `CC(C)(CNc1ncc2c(n1)CCNC2)c1ccc(F)cc1` [[2-(4-fluorophenyl)-2-methylpropyl]-5,6,7,8-tetrahydropyridino[4,3-d]pyrimidin-2-ylamine]: “D (D=>20 uM)”.

In the case of `Fc1cccnc1C1(Nc2ncc(-c3ccc4[nH]ncc4c3)cn2)CCC1` [(5-(1H-indazol-5-yl)pyrimidin-2-yl)[(3-fluoro(2-pyridyl))cyclobutyl]amine], the “Mean AC1.4” value is on record as “B (B=1-10 uM)”. For `CC(=O)Nc1ccccc1-c1cnc(NC[C@]2(c3ncccc3F)C[C@H](F)C2)nc1` [N-{2-[2-({[3-fluoro-1-(3-fluoro(2-pyridyl))cyclobutyl]methyl}amino)pyrimidin-5-yl]phenyl}acetamide], the “Mean AC1.4” value is “D (D=>20 uM)”. Next, `CC(C)(Nc1ncc(-c2nnc(C(N)=O)s2)cn1)c1ncccc1Cl` [5-(2-{[1-(3-chloro(2-pyridyl))-isopropyl]amino}pyrimidin-5-yl)-1,3,4-thiadiazole-2-carboxamide]: “D (D=>20 uM)”; `NC(=O)c1cccc(-c2cnc(NCC3(c4ncccc4F)CC(F)C3)nc2)c1` (stereo not drawn) [3-[2-({[3-fluoro-1-(3-fluoro(2-pyridyl))cyclobutyl]methyl}amino)pyrimidin-5-yl]benzamide]: “A (A=<1 uM)”. Consider `CC(C)(Nc1ncc(-c2cnn(CC(=O)O)c2)cn1)c1ncccc1Cl` [2-[4-(2-{[1-(3-chloro(2-pyridyl))-isopropyl]amino}pyrimidin-5-yl)pyrazolyl]acetic acid], for which the “Mean AC1.4” value is given as “D (D=>20 uM)”. Next, `Fc1cccnc1C1(Nc2ncc(Br)cn2)CCC1` [(5-bromopyrimidin-2-yl)[(3-fluoro(2-pyridyl))cyclobutyl]amine]: “D (D=>20 uM)”; `CSc1ccc(C(C)(C)Nc2ncc(-c3cccc(C#N)c3)cn2)cc1` [3-(2-{[1-methyl-1-(4-methylthiophenyl)ethyl]amino}pyrimidin-5-yl)benzenecarbonitrile]: “D (D=>20 uM)”; `Cn1nc(-c2cnc(NC(C)(C)c3ncccc3Cl)nc2)cc1C(N)=O` [3-(2-{[1-(3-chloro(2-pyridyl))-isopropyl]amino}pyrimidin-5-yl)-1-methylpyrazole-5-carboxamide]: “D (D=>20 uM)”. Next, `Cc1nc(NC[C@]2(c3ncccc3F)C[C@H](F)C2)ncc1-c1ccc(C#N)cc1` [4-[2-({[3-fluoro-1-(3-fluoro(2-pyridyl))cyclobutyl]methyl}amino)-4-methylpyrimidin-5-yl]benzenecarbonitrile]: “D (D=>20 uM)”. Next, `NC(=O)c1ccc(F)c(-c2cnc(NC[C@]3(c4ncccc4F)C[C@H](F)C3)nc2)c1O` [4-fluoro-3-[2-({[3-fluoro)-1-(3-fluoro(2-pyridyl))cyclobutyl]methyl}amino)pyrimidin-5-yl]-2-hydroxybenzamide]: “A (A=<1 uM)”.

Consider `O=C(O)c1nc2cnc(NCC3(c4ncccc4F)CCC3)nc2s1` [5-({[(3-fluoro-2-pyridyl)cyclobutyl]methyl}amino)-1,3-thiazolo[5,4-d]pyrimidine-2-carboxylic acid], for which the “Mean AC1.4” value is “D (D=>20 uM)”.

For `O=C(Nc1ccc(F)cc1)c1cnc(NCC2(c3ncccc3F)CCC2)nc1` [[2-({[(3-fluoro(2-pyridyl))cyclobutyl]methyl}amino)pyrimidin-5-yl]-N-(4-fluorophenyl)carboxamide], the “Mean AC1.4” value was “D (D=>20 uM)”. As for `O=c1[nH]cc(-c2cnc(NC[C@]3(c4ncccc4F)C[C@H](F)C3)nc2)c(=O)[nH]1` [5-[2-({[3-fluoro-1-(3-fluoro(2-pyridyl))cyclobutyl]methyl}amino)pyrimidin-5-yl]-1,3-dihydropyrimidine-2,4-dione], the entry is “D (D=>20 uM)”; as for `CC(C)(Nc1ncc(C#N)cn1)c1ncccc1Cl` [2-{[1-(3-chloro(2-pyridyl))-isopropyl]amino}pyrimidine-5-carbonitrile], “D (D=>20 uM)”. Next, `O=C(NC1(c2ccc(F)cc2)CCC1)c1cnc(NC2(c3ccc(F)cc3)CCC2)nc1C(F)(F)F` [N-[(4-fluorophenyl)cyclobutyl](2-{[(4-fluorophenyl)cyclobutyl]amino}-4-(trifluoromethyl)pyrimidin-5-yl)carboxamide]: “D (D=>20 uM)”; `N#Cc1cnc(NC2(c3ncccc3F)CCC2)nc1` [2-{[(3-fluoro-2-pyridyl)cyclobutyl]amino} pyrimidine-5-carbonitrile]: “D (D=>20 uM)”. `CC(C)(Nc1ncc(-c2cnn(CC(N)=O)c2)cn1)c1ncccc1Cl` [2-[4-(2-{[1-(3-chloro(2-pyridyl))-isopropyl]amino}pyrimidin-5-yl)pyrazolyl]acetamide]: the “Mean AC1.4” value is “D (D=>20 uM)”.

`CC(C)(Nc1ncc(-c2cn3cccc(C(N)=O)c3n2)cn1)c1ncccc1Cl` [2-(2-{[1-(3-chloro(2-pyridyl))-isopropyl]amino}pyrimidin-5-yl)-4-hydroimidazo[1,2-a]pyridine-8-carboxamide]: the “Mean AC1.4” value was “B (B=1-10 uM)”. Regarding `CC(C)(CNc1ncc2c(n1)CN(S(C)(=O)=O)CC2)c1ccc(F)cc1` [2-{[2-(4-fluorophenyl)-2-methylpropyl]amino}-7-(methylsulfonyl)-5,6,7,8-tetrahydropyridino[3,4-d]pyrimidine], the “Mean AC1.4” value is given as “C (C=10-20 uM)”.
